The values that follow are results of earlier work, collected in patent publication US20210022994A1, “SUSTAINED RELEASE TREPOSTINIL-COMPOUND MICROPARTICLE COMPOSITIONS” (Lupin Holdings, B.V., priority 2019, published 2021).

The conditions of the series: in human plasma.

Each structure is given as a SMILES string.

With `CCCCC[C@H](O)CC[C@@H]1[C@H]2Cc3cccc(OCC(=O)O)c3C[C@H]2C[C@H]1O` [treprostinil, (1R,2R,3aS,9aS)-[[2,3,3a,4,9,9a-hexahydro-2-hydroxy-1-[(3S)-3-hydroxyoctyl]-1Hbenz[f]inden-5-yl]oxy]acetic acid], the half-life is 2 to 4 h.
